What was measured:
eGFP+ human islet cells = experiment: Insulin immunostaining of eGFP+ islet cells incubated with diazoxide after viral infection; type: cell-based; design: dose or concentration left out as unconfirmed; conditions: diazoxide following viral infection, days 5-6 of culture
[1] = tested on: sorted eGFP+ cells derived from beta cells; experiment: HES1 shRNA in sorted eGFP+ cells expanded 7 population doublings, qRT-PCR and morphology; type: cell-based, human
Procedure: Virus was produced in 293T cells following cotransfection with the pCMVdR8.91 and pMD2.G packaging plasmids. The culture medium was harvested 48 hours later. […] They were then infected with HES1 or nontarget shRNA viruses, and 4 days later trypsinized and shifted to serum free medium (SFM). RNA was extracted following 4 more days and analyzed by qRT-PCR.
RNA analyses: As described for Example 1.

[2] = tested on: cultured human islet cells; experiment: Replication of cultured islet cells (BrdU incorporation, Ki67 staining) after HES1 shRNA infection; type: cell-based; conditions: 14 days after infection
Procedure: (§1) HES1 inhibition and lineage tracing: HES1 shRNA ([…])—SEQ ID NO: 7 and a non-target shRNA, cloned in pLKO.1 lentiviral vector, were obtained from the RNAi Consortium (Sigma-Aldrich). Virus was produced in 293T cells following cotransfection with the pCMVdR8.91 and pMD2.G packaging plasmids. The culture medium was harvested 48 hours later. Islet cells cultured for 1-2 days were washed with PBS and infected at MOI 2.5:1 in CMRL 1066 medium containing 8 μg/ml polybrene overnight. The medium was then replaced with regular culture medium. Four days after infection, the cells were selected for puromycin resistance (1 μg/ml) for 3 days. Two weeks after infection the cells were harvested for further analysis. Lineage tracing was performed using the RIP-Cre and a pTrip CMV-loxP-DsRed2-loxP-eGFP viruses as described herein below. Briefly, islet cells cultured for 1-2 days were infected with a 1:1:1 mixture of the 3 viruses (shRNA+RIP-Cre+pTrip CMV-loxP-DsRed2-loxP-eGFP) at a total MOI 4:1. Selection and further analysis were carried out as above.
(§2) Immunofluorescence: Cells were plated in 24-well plates on sterilized coverslips and fixed in 4% paraformaldehyde. Cells were permeabilized with 0.25% NP40 for 10 minutes and blocked for 10 minutes at room temperature in 1% bovine serum albumin, 10% FBS, and 0.2% saponin. […]

[3] = tested on: cultured human islet cells; experiment: Immunoblotting for cleaved PARP (apoptosis) in islet cells; type: cell-based
Procedure: as §1
(§3) Immunoblotting: Total cellular protein was extracted in 0.5% NP40 containing a protease inhibitor cocktail (Roche). Protein concentration was determined by the BCA method (Pierce, Rockford, Ill.). […] Loading was monitored using goat-anti-beta-actin (Santa Cruz, 1:1000). […]

HES1 [4] = experiment: Immunoblotting for HES1 in islet cells infected at culture initiation with HES1 shRNA virus; type: cell-based, human; conditions: islet cells infected after 1-2 days of culture, analysed 14 days after infection
Procedure: as §1, §3

[5] = tested on: cultured human islet cells; experiment: Insulin immunostaining of islet cells and eGFP+ cells after HES1 shRNA infection; type: cell-based
Procedure: as §1, §2

[6] = tested on: cultured human islet cells; experiment: qPCR analysis of RNA from islet cells 14 days after HES1 shRNA infection; type: cell-based; conditions: 14 days after infection
Procedure: as §1
RNA analyses: Total RNA was extracted using High Pure RNA isolation kit (Roche). cDNA was synthesized using SuperScript III (Invitrogen). qPCR was performed using a Prism 7300 ABI Real Time PCR System (Applied Biosystems). Relative quantitative analysis was performed according to the comparative CT method by using the arithmetic formula 2̂^−(ΔΔct). The cDNA levels were normalized to human ribosomal protein P0 (RPLP0) cDNA.

[7] = tested on: dedifferentiated human islet cells expanded in culture; experiment: Redifferentiation of dedifferentiated expanded human islet cells by HES1 shRNA (immunoblotting, RT-PCR, insulin ELISA, morphology); type: cell-based
Procedure: Human islet cells were cultured for 4-5 weeks as described for Example 1. They were then infected with lentiviruses expressing HES1 (SEQ ID NO: 7) or nontarget shRNAs. Nine days following infection the cells were analyzed as described for Example 1. Primers used for RT-PCR analysis are described in Table 1, herein above, […]

HES1 [8] = experiment: Screening of 4 HES1 shRNA sequences in 293T cells, HES1 immunoblotting; type: cell-based
Procedure: Immunoblotting: Total cellular protein was extracted in 0.5% NP40 containing a protease inhibitor cocktail (Roche). Protein concentration was determined by the BCA method (Pierce, Rockford, Ill.). 70 μg protein were separated on 12% sodium dodecyl sulphate-polyacrylamide gels and electroblotted onto PDF membranes. The membranes were incubated with rabbit-anti-HES1 (1:1000) or rabbit-anti-PARP (Cell Signaling, 1:1000). Loading was monitored using goat-anti-beta-actin (Santa Cruz, 1:1000). The bound antibody was visualized with the appropriate horseradish peroxidase-conjugated anti-IgG (Jackson) and SuperSignal West Pico Chemiluminescent Substrate (Pierce). Cells treated with 1 μm staurosporine for 6 hours were used as positive control for the PARP blot.
Inhibition of HES1 expression prevents induction of beta-cell replication: To further correlate the induction of beta-cell replication with HES1 upregulation, HES1 induction during the initial weeks of culture was inhibited using shRNA. […] Isolated human islets were dissociated, and the cells were infected with a lentivirus encoding HES1 shRNA before culture under standard conditions. Selection for drug resistance allowed elimination of uninfected cells. Cells infected with a non-target shRNA lentivirus and selected under similar conditions served as control. […]

[9] = tested on: Beta cell derived labeled cells at P5; experiment: Insulin expression (RT-PCR) in beta cell derived labeled cells treated with gamma-secretase inhibitor; type: cell-based, human; conditions: 300 nM, 4 days, vs untreated or DMSO
Procedure: Beta cell derived labeled cells at P5 treated for 4 days with 300 nM gamma-secretase inhibitor (S,S)-2-[2-(3,5-difluorophenyl)acetylamino]-N-(5-methyl-6-oxo-6,7-dihydro-5H-dibenzo [b,d]azepin-7-yl)propionamide (DBZ). Control cells were either untreated, or treated with DMSO (solvent). Medium with compound was changed every 48 hours.
RT-PCR analyses: As described for Example 1.

[10] = cells cultured 4-5 weeks, 9 days after infection, immunoblotting

CC1=NS(=O)(=O)c2cc(Cl)ccc2N1 [diazoxide] was tested, and the “fraction of eGFP+ cells that were insulin-positive” value (eGFP+ human islet cells) was 84.8±5.8%.

“TGGCCAGTTTGCTTTCCTCAT (chemistry not given here) [HES1 shRNA, HES1 shRNA cloned in pLKO.1 lentiviral vector, obtained from the RNAi Consortium (Sigma-Aldrich)]” was tested, and the “upregulation of transcripts encoding insulin, PDX1, NEUROD1, IAPP, and PC1” value ([1]; eGFP+ vs eGFP− cells, qRT-PCR) was “occurred preferentially in eGFP^+ cells”, the “induction of beta-cell transcripts, combination of SFM with HES1 shRNA” value ([1]; shRNA infection, 4 days later shifted to SFM, RNA after 4 more days) was “pronounced additive effect” and the “morphological changes in response to HES1 shRNA, eGFP+ compared with eGFP− cells” value ([1]; sorted cells) was “much more pronounced in eGFP^+ cells”. For the same molecule, the “replication rate, Ki67 staining in eGFP+ cells derived from beta cells” value [2] was “lower replication rate”, the “cell proliferation, staining for BrdU incorporation” value ([2]; compared with control vector) was “diminished cell proliferation” and the “cell apoptosis, immunoblotting for cleaved PARP” value ([3]; HES1 shRNA virus vs non-target virus, 14 days after infection) was “did not correlate with an increase in cell apoptosis”. The “HES1 protein levels, lower compared with cells infected with the control virus” value (HES1 [4]) was “up to 6 ×”, the “fraction of insulin-positive cells among eGFP+ cells, higher” value [5] was 3 fold and the “number of insulin-positive cells, higher than control virus” value ([5]; p<0.016) was 4 fold. The “insulin transcripts, lower compared with primary islets” value [6] was 20 fold, the “levels of NOTCH transcripts” value [6] was “did not affect” and the “levels of PDX1 and NEUROD1 transcripts relative to primary islets” value [6] was “comparable to those in primary islets”. For the same molecule, the “insulin transcripts, higher compared with cells infected with control virus” value ([6]; p<0.01) was 5.7 fold, the “p57 transcripts, higher than in cells infected with control virus” value ([6]; p<0.04) was 5.7 fold and the “PDX1 transcript levels, higher than control virus” value ([6]; p<0.05) was 5.6 fold. For the same molecule, the “NEUROD1 transcript levels, higher than control virus” value ([6]; p<5.45×10^−5) was 3.7 fold, the “insulin expression by insulin ELISA and immunostaining” value ([7]; 9 days after infection) was “increase” and the NEUROD1 transcripts ([7]; 9 days after infection, RT-PCR) was “significant increase”. For the same molecule, the PDX1 transcripts ([7]; 9 days after infection, RT-PCR) was “significant increase”, the insulin transcripts ([7]; 9 days after infection, RT-PCR) was “significant increase” and the “p57, RNA analysis” value ([7]; 9 days after infection, RT-PCR) was “increase”. For the same molecule, the “cellular HES1 protein levels” value [7, 10] was “decrease”, the “p57 levels (protein)” value [7, 10] was “increase” and the morphological change ([7]; cells expressing HES1 shRNA) was “tended to form clusters”. For the same molecule, the “efficiency among 4 HES1 shRNA sequences, based on reduction in HES1 protein levels” value (HES1 [8]) was “most efficient”.

In the case of CN[C@@H]1C[C@H]2O[C@@](C)([C@@H]1OC)n1c3ccccc3c3c4c(c5c6ccccc6n2c5c31)C(=O)NC4 [staurosporin, staurosporine, reference compound], the “PARP cleavage, immunoblotting (positive control)” value ([3]; uninfected cells, 1 μm staurosporine for 6 hours) is reported as “cleaved PARP”.

C[C@H](NC(=O)Cc1cc(F)cc(F)c1)C(=O)N[C@@H]1C(=O)N(C)c2ccccc2-c2ccccc21 [gamma secretase inhibitor, (S,S)-2-[2-(3,5-difluorophenyl)acetylamino]-N-(5-methyl-6-oxo-6,7-dihydro-5H-dibenzo [b,d]azepin-7-yl)propionamide] was tested, and the insulin expression [9] was “increase”.

From US20100278789A1, “METHODS OF GENERATING EXPANDED AND RE-DIFFERENTIATED ADULT ISLET BETA CELLS CAPABLE OF PRODUCING INSULIN” (priority 2007, published 2010)
